Reference: US20070081573A1, “Process for inhibiting biofilm formation on and/or removing biofilm from an enhanced tube” (Ashland Licensing and Intellectual Property LLC, priority 2005, published 2007)
Entries after “also recorded” stand apart in the source; their conditions may differ.

Tested on: pseudomonas aerigenosa (ATCC 27853) biofilm
Test: Biofouling test on enhanced tube and smooth tube in laboratory scale cooling tower system (modified P-U-L-S-E fouling monitor)
Assay type: cell-based

| Compound | effect on inhibiting and/or removing biofilm | reduction of biofilm deposits (summary of test results) |
| --- | --- | --- |
| BrBr [bromine, reference compound] | little effect | not effective alone |
| [O][Cl+][O-] [chlorine dioxide] | effective; also recorded: more effective than stabilized bromine | reduce the deposit of biofilm |
